Reference: US10428080B2, “TBK/IKK inhibitor compounds and uses thereof” (Merck Patent GmbH, priority 2015, dated 2019)
Where a name gives a salt, the structure may show the parent alone. Read-outs that look alike come from different tables or passages of the source.

Columns and labels:
TBK1 = molecular target: T1, TBK1 (Homo sapiens, UniProt Q9UHD2); assay: TBK Biochemical Assay; settings: read-out: TBK1 IC50
T1 sequence (Q9UHD2 1-729): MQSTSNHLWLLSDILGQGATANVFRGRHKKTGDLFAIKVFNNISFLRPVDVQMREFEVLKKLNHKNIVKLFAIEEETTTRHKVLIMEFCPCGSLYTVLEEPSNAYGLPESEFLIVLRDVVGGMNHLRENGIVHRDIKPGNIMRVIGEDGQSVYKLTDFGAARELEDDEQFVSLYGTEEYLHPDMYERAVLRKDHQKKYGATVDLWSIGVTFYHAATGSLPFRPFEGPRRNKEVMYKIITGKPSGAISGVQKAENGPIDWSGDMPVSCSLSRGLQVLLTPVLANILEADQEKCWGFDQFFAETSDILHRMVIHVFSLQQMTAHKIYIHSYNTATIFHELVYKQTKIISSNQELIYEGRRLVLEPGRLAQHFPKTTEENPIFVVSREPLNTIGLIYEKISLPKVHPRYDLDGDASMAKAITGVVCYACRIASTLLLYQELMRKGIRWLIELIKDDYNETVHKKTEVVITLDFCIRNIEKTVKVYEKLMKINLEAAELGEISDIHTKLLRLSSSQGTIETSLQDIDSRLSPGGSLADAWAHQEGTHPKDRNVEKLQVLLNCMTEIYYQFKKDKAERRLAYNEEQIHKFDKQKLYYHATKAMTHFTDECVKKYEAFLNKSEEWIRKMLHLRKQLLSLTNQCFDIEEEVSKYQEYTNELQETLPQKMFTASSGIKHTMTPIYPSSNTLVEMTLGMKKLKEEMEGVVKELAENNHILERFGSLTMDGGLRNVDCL
Method in brief: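 TBK1 enzyme and substrate incubated with compounds (10-point 1:4 dilution, top 30 uM final, 1% DMSO) for 90 min at 25° C, then stopped. Substrate/product peaks read by microfluidic mobility-shift (Caliper LabChip); 10 uM staurosporine as full-inhibition control.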

IKKε = molecular target: T2, IKKε (Homo sapiens, UniProt Q14164); assay: IKKe Biochemical Assay; settings: read-out: IKKε IC50
T2 sequence (Q14164 1-716): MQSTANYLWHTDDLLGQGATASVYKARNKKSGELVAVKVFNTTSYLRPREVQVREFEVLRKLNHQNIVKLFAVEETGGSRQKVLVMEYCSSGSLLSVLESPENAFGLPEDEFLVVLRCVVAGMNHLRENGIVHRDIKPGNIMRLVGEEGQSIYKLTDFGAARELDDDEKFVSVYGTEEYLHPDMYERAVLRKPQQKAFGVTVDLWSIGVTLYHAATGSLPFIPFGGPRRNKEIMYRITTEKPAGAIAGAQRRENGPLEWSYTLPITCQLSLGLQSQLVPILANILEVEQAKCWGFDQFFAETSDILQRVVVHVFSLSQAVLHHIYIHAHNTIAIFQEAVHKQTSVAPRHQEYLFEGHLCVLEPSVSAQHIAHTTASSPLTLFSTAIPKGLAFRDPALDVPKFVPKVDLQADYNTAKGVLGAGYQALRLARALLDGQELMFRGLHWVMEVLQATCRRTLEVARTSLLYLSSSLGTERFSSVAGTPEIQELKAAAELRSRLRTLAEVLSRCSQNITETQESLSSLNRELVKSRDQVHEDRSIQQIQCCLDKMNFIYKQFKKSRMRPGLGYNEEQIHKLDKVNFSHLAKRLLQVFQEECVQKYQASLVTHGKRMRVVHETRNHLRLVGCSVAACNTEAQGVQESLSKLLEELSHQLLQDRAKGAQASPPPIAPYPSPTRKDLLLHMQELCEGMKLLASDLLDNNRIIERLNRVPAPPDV
Method in brief: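 Recombinant IKKε and substrate were incubated with compound (10-point 1:4 series, top 30 uM final, 1% DMSO) for 90 min at 25° C, then stopped. Substrate-to-product conversion was read by LabChip microfluidic mobility shift; 10 uM staurosporine served as full-inhibition wells.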

[1] = system: phosphorylation of the IRF-3 protein in MDA-MB-468 cells; assay: pIRF3 immunocytochemistry cell based assay; settings: Homo sapiens
Method in brief: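 MDA-MB-468 cells got compounds (10-point, 3-fold from 10 uM) for 1 h at 37 °C, then 10 ug/ml Poly(I:C) for 2 h. Fixed, permeabilized cells were immunostained for pIRF3 with AlexaFluor488 and counterstained with PI. % phosphorylation was read by laser scanning cytometry, and IC50 curves were fitted.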

[2] = MDA-MB-468 cells, Poly(I:C) stimulation, read-out: pIRF3 IC50

Work on `COc1cc(C(=O)N(C)C)ccc1-c1cc2nccc(-c3cc(C#N)c(OC4CCOCC4)cn3)c2o1` [Compound 161, 4-{7-[4-Cyano-5-(tetrahydro-pyran-4-yloxy)-pyridin-2-yl]-furo[3,2-b]pyridin-2-yl}-3-methoxy-N,N-dimethyl-benzamide] yielded an IC50 (TBK1) of 100 to 1000 nM, an IC50 (IKKε) of 100 to 1000 nM and an IC50 [1, 2] of 1000 to 5000 nM.
Work on `COc1cc(C(=O)N(C)C)ccc1-c1cc2nccc(-c3ccc(NCC4CCOC4)c(C#N)c3)c2o1` (stereo not drawn) [Compound 36] yielded an IC50 (TBK1) of under 100 nM, an IC50 (IKKε) of under 100 nM and an IC50 [1, 2] of 100 to 1000 nM.
With `COc1cc(C(=O)NC2CN(C)CCC2O)ccc1-c1cc2nccc(-c3ccc(OC4CCOCC4)c(C#N)c3)c2o1` (stereo not drawn) [Compound 348, 4-[7-[3-cyano-4-(oxan-4-yloxy)phenyl]furo[3,2-b]pyridin-2-yl]-N-(4-hydroxy-1-methylpiperidin-3-yl)-3-methoxybenzamide] the IC50 (TBK1) was under 100 nM, the IC50 (IKKε) was under 100 nM and the IC50 [1, 2] was 100 to 1000 nM.
In the case of `CN(C)C(=O)c1ccc(-c2cc3nccc(-c4ccc(OC5CC6(COC6)C5)c(C#N)c4)c3o2)cc1` [Compound 177, 4-{7-[3-Cyano-4-(2-oxa-spiro[3.3]hept-6-yloxy)-phenyl]-furo[3,2-b]pyridin-2-yl}-N,N-dimethyl-benzamide], the IC50 (TBK1) is reported as 100 to 1000 nM, the IC50 (IKKε) is reported as 100 to 1000 nM and the IC50 [1, 2] is reported as 1000 to 5000 nM.
Compound `COc1cc(C(=O)N2CCCCC2)cnc1-c1cc2nccc(-c3ccc(N4CC[C@@H](F)C4)c(C#N)c3)c2o1` [Compound 410, 2-[(3R)-3-fluoropyrrolidin-1-yl]-5-(2-[3-methoxy-5-[(piperidin-1-yl)carbonyl]pyridin-2-yl]furo[3,2-b]pyridin-7-yl)benzonitrile] has an IC50 (TBK1) of under 100 nM, an IC50 (IKKε) of under 100 nM and an IC50 [1, 2] of 100 to 1000 nM.
Work on `COc1cc(C(=O)N(C)C)ccc1-c1cc2nccc(-c3ccc(NC4CC(C)(C)OC(C)(C)C4)c(C#N)c3)c2o1` [Compound 471, 4-(7-[3-cyano-4-[(2,2,6,6-tetramethyloxan-4-yl)amino]phenyl]furo[3,2-b]pyridin-2-yl)-3-methoxy-N,N-dimethylbenzamide] yielded an IC50 (TBK1) of 100 to 1000 nM, an IC50 (IKKε) of 100 to 1000 nM and an IC50 [1, 2] of 1000 to 5000 nM.
`COc1cc(C(=O)N(C)C)ncc1-c1cc2nccc(-c3ccc(OC4CN(C)C4)c(C#N)c3)c2o1` [Compound 424, 5-(7-[3-cyano-4-[(1-methylazetidin-3-yl)oxy]phenyl]furo[3,2-b]pyridin-2-yl)-4-methoxy-N,N-dimethylpyridine-2-carboxamide] showed an IC50 (TBK1) of 100 to 1000 nM, an IC50 (IKKε) of 100 to 1000 nM and an IC50 [1, 2] of 100 to 1000 nM.
`COc1cc(C(=O)NCC(O)CO)ccc1-c1cc2nccc(-c3ccc(NC4CCOCC4)c(C#N)c3)c2o1` (stereo not drawn) [Compound 111, 4-{7-[3-Cyano-4-(tetrahydro-pyran-4-ylamino)-phenyl]-furo[3,2-b]pyridin-2-yl}-N-(2,3-dihydroxy-propyl)-3-methoxy-benzamide] gave an IC50 (TBK1) of under 100 nM, an IC50 (IKKε) of under 100 nM and an IC50 [1, 2] of 100 to 1000 nM.
Work on `COc1cc(C(=O)N2C[C@H]3C[C@@H]2CN3C)ccc1-c1cc2nccc(-c3ccc(OC4CCOCC4)c(C#N)c3)c2o1` (stereo in doubt) [Compound 507] yielded an IC50 (TBK1) of under 100 nM, an IC50 (IKKε) of under 100 nM and an IC50 [1, 2] of under 100 nM.
`COc1cc(C(=O)NC(C)(C)CN(C)C)ccc1-c1cc2nccc(-c3ccc(OC4CCOCC4)c(C#N)c3)c2o1` [Compound 63, 4-{7-[3-Cyano-4-(tetrahydro-pyran-4-yloxy)-phenyl]-furo[3,2-b]pyridin-2-yl}-N-(2-dimethylamino-1,1-dimethyl-ethyl)-3-methoxy-benzamide] gave an IC50 (TBK1) of under 100 nM, an IC50 (IKKε) of under 100 nM and an IC50 [1, 2] of under 100 nM.
For `COc1cc(C(=O)N2CCCCN2)cnc1-c1cc2nccc(-c3ccc(OC4CCOCC4)c(C#N)c3)c2o1` [Compound 407, 5-(2-[5-[(1,2-diazinan-1-yl)carbonyl]-3-methoxypyridin-2-yl]furo[3,2-b]pyridin-7-yl)-2-(oxan-4-yloxy)benzonitrile hydrochloride], the IC50 (TBK1) was under 100 nM, the IC50 (IKKε) was under 100 nM and the IC50 [1, 2] was 100 to 1000 nM.
`COc1cc(C(=O)N2CC(N3CCOCC3)C2)ccc1-c1cc2nccc(-c3ccc(OC4CCOCC4)c(C#N)c3)c2o1` [Compound 8] was tested, and the IC50 (TBK1) was under 100 nM, the IC50 (IKKε) was under 100 nM and the IC50 [1, 2] was under 100 nM.
`COc1cc(C(=O)N2CCN(C)CC2)cnc1-c1cc2nccc(-c3ccc(N4CCC(F)C4)c(C#N)c3)c2o1` (stereo not drawn) [Compound 460, 2-(3-fluoropyrrolidin-1-yl)-5-(2-[3-methoxy-5-[(4-methylpiperazin-1-yl)carbonyl]pyridin-2-yl]furo[3,2-b]pyridin-7-yl)benzonitrile] showed an IC50 (TBK1) of under 100 nM, an IC50 (IKKε) of under 100 nM and an IC50 [1, 2] of 100 to 1000 nM.
With `COc1cc(C(=O)NC2CC(N3CCCC3)C2)ccc1-c1cc2nccc(-c3ccc(OC4CCOCC4)c(C#N)c3)c2o1` (stereo not drawn) [Compound 371, 4-(7-(3-cyano-4-(tetrahydro-2H-pyran-4-yloxy)phenyl)furo[3,2-b]pyridin-2-yl)-3-methoxy-N-(3-(pyrrolidin-1-yl)cyclobutyl)benzamide] the IC50 (TBK1) was under 100 nM, the IC50 (IKKε) was under 100 nM and the IC50 ([1]; MDA-MB-468, read-out: pIRF3 IC50) was 100 to 1000 nM.
Work on `COc1cc(C(=O)N(C)CCO)ncc1-c1cc2nccc(-c3ccc(N4CC[C@@H](F)C4)c(C#N)c3)c2o1` [Compound 380, 5-{7-[3-Cyano-4-((R)-3-fluoro-pyrrolidin-1-yl)-phenyl]-furo[3,2-b]pyridin-2-yl}-4-methoxy-pyridine-2-carboxylic acid (2-hydroxy-ethyl)-methyl-amide] yielded an IC50 (TBK1) of under 100 nM, an IC50 (IKKε) of under 100 nM and an IC50 [1, 2] of under 100 nM.
For `COc1cc(C(=O)N(C)C)ccc1-c1cc2nccc(-c3ccc(O[C@@H]4CCNC[C@@H]4F)c(C#N)c3)c2o1` [Compound 153, 4-{7-[3-Cyano-4-((3S,4R)-3-fluoro-piperidin-4-yloxy)-phenyl]-furo[3,2-b]pyridin-2-yl}-3-methoxy-N,N-dimethyl-benzamide hydrochloride], the IC50 (TBK1) was under 100 nM, the IC50 (IKKε) was under 100 nM and the IC50 [1, 2] was 100 to 1000 nM.
With `COc1cc(C(=O)N2CC(N3CCCC3)C2)ccc1-c1cc2nccc(-c3ccc(OC4CCOCC4)c(C#N)c3)c2o1` [Compound 20, 5-{2-[2-Methoxy-4-(3-pyrrolidin-1-yl-azetidine-1-carbonyl)-phenyl]-furo[3,2-b]pyridin-7-yl}-2-(tetrahydro-pyran-4-yloxy)-benzonitrile] the IC50 (TBK1) was under 100 nM, the IC50 (IKKε) was under 100 nM and the IC50 [1, 2] was under 100 nM.
In the case of `COc1cc(C(=O)N2CC[C@@H](N(C)C)C2)cnc1-c1cc2nccc(-c3ccc(N4CC[C@@H](F)C4)c(C#N)c3)c2o1` [Compound 456, 5-[2-(5-[[(3R)-3-(dimethylamino)pyrrolidin-1-yl]carbonyl]-3-methoxypyridin-2-yl) (R)-furo[3,2-b]pyridin-7-yl]-2-(3-fluoropyrrolidin-1-yl)benzonitrile], the IC50 (TBK1) is reported as under 100 nM, the IC50 (IKKε) is reported as under 100 nM and the IC50 [1, 2] is reported as under 100 nM.
`COc1cc(C(=O)NC2(CO)COC2)ccc1-c1cc2nccc(-c3ccc(OC4CCOCC4)c(C#N)c3)c2o1` [Compound 51, 4-{7-[3-Cyano-4-(tetrahydro-pyran-4-yloxy)-phenyl]-furo[3,2-b]pyridin-2-yl}-N-(3-hydroxymethyl-oxetan-3-yl)-3-methoxy-benzamide] was tested, and the IC50 (TBK1) was under 100 nM, the IC50 (IKKε) was under 100 nM and the IC50 [1, 2] was 100 to 1000 nM.
